Laboratory results from US20210317140A1, “Heterocyclic Compounds and Methods of Use” (MEDIVATION TECHNOLOGIES, INC, priority 2013, published 2021).

Tests used:
Assay type in all cases: biochemical
BTK = biological target: T1, BTK (Homo sapiens, UniProt Q06187); assay: BTK kinase assay (HotSpot, 33P ATP); settings: for BTK @ 0.1 μM (% Inh): 0.1 μM compound; for IC50: 10 dose IC50, 10 μM ATP; for BTK @ 0.01 μM (% Inh): 0.01 μM compound
T1 construct: purchased Reaction Biology Corporation
In short: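 In 20 mM Hepes (pH 7.5) with 10 mM MgCl2, 1 mM EGTA, 0.1 mM Na3VO4, 2 mM DTT, 0.02% Brij35, 0.02 mg/mL BSA and 1% DMSO, kinase and substrate were exposed to ten compound doses for 15–20 min.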

TEC = biological target: T2, TEC (Homo sapiens, UniProt P42680); assay: TEC kinase profiling (BTK protocol); settings: for TEC @ 0.3 μM (% Inh): 0.3 μM compound
T2 construct: purchased Reaction Biology Corporation
T2 sequence (P42680 1-631): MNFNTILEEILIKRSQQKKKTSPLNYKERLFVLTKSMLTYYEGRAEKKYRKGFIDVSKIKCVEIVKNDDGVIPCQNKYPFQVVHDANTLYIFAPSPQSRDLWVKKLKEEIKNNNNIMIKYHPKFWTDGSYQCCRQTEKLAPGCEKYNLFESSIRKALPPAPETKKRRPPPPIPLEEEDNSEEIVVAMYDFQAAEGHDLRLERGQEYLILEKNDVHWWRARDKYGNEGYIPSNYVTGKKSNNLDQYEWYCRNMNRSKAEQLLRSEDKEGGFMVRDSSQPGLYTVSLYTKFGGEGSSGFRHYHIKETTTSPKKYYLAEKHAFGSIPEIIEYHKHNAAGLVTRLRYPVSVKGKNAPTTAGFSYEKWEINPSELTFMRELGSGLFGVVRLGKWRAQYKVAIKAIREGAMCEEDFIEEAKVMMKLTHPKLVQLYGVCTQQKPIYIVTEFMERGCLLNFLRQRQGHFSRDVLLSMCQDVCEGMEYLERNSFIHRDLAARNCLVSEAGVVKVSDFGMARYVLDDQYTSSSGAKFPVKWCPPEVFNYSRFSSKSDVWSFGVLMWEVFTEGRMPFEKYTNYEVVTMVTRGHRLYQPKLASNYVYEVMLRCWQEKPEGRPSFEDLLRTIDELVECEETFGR

ITK = biological target: T3, ITK (Homo sapiens, UniProt Q08881); assay: ITK kinase profiling (BTK protocol); settings: for ITK @ 0.3 μM (% Inh): 0.3 μM compound
T3 construct: purchased Reaction Biology Corporation
T3 sequence (Q08881 1-620): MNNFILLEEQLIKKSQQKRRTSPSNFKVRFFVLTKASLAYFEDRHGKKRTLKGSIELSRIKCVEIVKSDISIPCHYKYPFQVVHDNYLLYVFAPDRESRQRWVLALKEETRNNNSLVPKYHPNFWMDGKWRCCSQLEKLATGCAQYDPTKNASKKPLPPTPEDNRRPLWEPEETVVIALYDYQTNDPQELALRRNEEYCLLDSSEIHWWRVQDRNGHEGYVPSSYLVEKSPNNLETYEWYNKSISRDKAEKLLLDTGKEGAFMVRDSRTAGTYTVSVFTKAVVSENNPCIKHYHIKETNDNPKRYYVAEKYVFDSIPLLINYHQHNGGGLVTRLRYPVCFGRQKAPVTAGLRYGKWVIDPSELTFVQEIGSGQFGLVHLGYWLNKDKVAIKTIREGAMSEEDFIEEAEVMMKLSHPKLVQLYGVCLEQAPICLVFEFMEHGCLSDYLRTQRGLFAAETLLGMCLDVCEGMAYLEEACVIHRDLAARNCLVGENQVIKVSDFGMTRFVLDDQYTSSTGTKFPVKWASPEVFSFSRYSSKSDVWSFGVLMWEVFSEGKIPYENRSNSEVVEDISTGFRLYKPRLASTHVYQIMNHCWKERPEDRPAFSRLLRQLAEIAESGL

PI3Kβ = biological target: T4, PI3Kβ (Homo sapiens, UniProt P42338); assay: PI3Kβ isoform profiling (PI3Kδ protocol); settings: for PI3Kβ @ 0.3 μM (% Inh): 0.3 μM compound
T4 construct: purchased Reaction Biology Corporation
T4 sequence (P42338 whole entry, canonical isoform): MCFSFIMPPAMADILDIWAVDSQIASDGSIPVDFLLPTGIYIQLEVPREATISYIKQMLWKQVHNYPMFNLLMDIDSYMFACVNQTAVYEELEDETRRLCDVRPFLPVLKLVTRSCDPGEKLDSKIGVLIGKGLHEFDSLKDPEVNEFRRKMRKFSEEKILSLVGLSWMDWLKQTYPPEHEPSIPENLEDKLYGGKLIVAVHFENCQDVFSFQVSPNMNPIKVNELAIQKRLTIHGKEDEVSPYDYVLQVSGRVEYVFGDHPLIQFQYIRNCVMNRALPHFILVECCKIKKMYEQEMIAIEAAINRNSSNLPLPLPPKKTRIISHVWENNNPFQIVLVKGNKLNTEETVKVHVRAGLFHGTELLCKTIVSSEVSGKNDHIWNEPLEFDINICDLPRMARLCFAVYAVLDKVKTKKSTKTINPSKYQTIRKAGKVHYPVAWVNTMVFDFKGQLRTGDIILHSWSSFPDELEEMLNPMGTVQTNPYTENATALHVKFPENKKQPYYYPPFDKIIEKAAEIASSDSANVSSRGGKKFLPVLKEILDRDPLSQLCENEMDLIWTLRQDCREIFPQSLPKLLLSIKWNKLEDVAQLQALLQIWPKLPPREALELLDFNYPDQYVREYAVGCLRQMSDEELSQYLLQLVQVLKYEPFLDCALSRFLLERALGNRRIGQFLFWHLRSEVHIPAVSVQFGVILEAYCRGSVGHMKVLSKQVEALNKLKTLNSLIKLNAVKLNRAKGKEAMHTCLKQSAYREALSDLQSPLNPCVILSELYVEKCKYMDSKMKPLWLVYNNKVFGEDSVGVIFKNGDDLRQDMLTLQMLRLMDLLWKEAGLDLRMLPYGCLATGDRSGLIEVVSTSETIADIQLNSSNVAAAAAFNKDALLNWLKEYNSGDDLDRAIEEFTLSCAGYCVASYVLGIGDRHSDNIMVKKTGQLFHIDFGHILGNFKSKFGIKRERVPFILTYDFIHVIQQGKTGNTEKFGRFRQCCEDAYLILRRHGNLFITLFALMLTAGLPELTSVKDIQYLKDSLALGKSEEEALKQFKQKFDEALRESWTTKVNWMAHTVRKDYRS
T4 sequence (P27986 whole entry partner, canonical isoform): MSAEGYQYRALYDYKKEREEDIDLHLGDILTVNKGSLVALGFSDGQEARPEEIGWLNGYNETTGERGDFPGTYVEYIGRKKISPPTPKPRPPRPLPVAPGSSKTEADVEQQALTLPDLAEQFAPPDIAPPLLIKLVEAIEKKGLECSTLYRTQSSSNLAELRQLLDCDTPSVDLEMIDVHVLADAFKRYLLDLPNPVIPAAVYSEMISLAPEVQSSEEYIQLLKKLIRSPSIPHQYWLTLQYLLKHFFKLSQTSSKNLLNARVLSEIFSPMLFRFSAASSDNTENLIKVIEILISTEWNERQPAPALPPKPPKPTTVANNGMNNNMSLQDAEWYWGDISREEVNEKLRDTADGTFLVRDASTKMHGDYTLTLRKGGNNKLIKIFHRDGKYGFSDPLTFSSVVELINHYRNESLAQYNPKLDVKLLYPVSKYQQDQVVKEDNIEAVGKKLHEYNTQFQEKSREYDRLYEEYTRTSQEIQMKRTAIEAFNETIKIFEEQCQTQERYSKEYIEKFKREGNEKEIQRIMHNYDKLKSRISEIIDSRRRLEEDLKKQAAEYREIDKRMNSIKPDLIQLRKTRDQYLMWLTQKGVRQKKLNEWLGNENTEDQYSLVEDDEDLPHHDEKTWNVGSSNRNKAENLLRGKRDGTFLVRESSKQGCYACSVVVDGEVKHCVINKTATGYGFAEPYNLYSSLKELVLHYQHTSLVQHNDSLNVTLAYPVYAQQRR
Source text: PI3Kδ assay: The PIP3 product is detected by displacement of biotin-PIP3 from an energy transfer complex consisting of Europium labeled anti-GST monoclonal antibody, a GST-tagged pleckstrin homology (PH) domain, biotinylated PIP3 and Streptavidin-Allophycocyanin (APC). Excitation of Europium in the complex results in an energy transfer to the APC and a fluorescent emission at 665 nm. The PIP3 product formed by PI 3-Kinase(h) activity displaces biotin-PIP3 from the complex resulting in a loss of energy transfer and thus a decrease in signal. This is a 3-step reaction: First, the kinase reaction with PIP2 substrate is carried out in the presence of ATP (10 μM), and the reaction is quenched with stop Solution, and then finally detect by adding Detection Mixture followed by incubation (10 min). Reaction procedure: 1) Prepare substrate in freshly prepared Reaction Buffer. 2) Deliver kinase into the substrate solution and gently mix. 3) Deliver compounds in 100% DMSO (1 μM) into the kinase reaction mixture by Acoustic technology (Echo550; nanoliter range), incubate for 10 min at RT. 4) Deliver ATP into the reaction mixture to initiate the reaction. 5) Incubate for 30 min at 30° C. 6) Quench the reaction with Stop Solution. 7) Add Detection Mixture, and incubate for overnight. 8) Measure HTRF: Ex=320 nm, ratio of Em=615 nm and Em=665 nm. The emission ratio is converted into μM PIP3 production based on PIP3 standard curves. The nonlinear regression to obtain the standard curve and IC50 values are performed using Graphpad Prism software. Assay Buffer: HEPES 50 mM (pH7.0), NaN3 0.02%, BSA 0.01%, Orthovanadate 0.1 mM, 1% DMSO. Detection buffer: HEPES 10 mM (pH7.0), BSA 0.02%, KF 0.16 M, EDTA 4 mM. Substrate: 10 μM PIP2 substrate (PI(4,5)P2).
Compounds of the invention were profiled in a 10 dose IC50 panel against PI3Kα, PI3Kβ, and PI3Kγ kinases, provided by Reaction Biology Corporation, applied to the PI3Kδ protocol provided in Example B1.

T1 sequence (Q06187 whole entry): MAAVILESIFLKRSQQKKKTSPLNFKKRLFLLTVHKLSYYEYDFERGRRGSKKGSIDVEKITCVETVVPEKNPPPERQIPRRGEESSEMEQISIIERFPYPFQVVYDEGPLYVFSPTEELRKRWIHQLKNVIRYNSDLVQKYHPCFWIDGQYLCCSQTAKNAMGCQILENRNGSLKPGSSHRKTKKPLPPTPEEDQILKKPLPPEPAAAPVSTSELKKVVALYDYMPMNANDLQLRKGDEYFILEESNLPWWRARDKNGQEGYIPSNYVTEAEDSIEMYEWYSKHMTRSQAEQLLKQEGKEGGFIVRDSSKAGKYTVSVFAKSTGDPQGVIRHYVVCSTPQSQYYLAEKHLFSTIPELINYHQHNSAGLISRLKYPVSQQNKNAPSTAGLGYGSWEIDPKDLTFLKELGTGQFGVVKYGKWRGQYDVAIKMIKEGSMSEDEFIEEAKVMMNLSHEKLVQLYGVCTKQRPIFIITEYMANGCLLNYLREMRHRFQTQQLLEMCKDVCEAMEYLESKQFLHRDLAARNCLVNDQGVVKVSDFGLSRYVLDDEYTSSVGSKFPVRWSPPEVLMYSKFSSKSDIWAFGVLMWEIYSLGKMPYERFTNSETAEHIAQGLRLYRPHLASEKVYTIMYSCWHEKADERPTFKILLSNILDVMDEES

BTK @ 0.1 μM (% Inh) (BTK; 10 μM ATP)	IC50 (BTK) [nM]	TEC @ 0.3 μM (% Inh) (TEC)	IC50 (TEC; 10 dose IC50) [nM]	ITK @ 0.3 μM (% Inh) (ITK)	IC50 (ITK; 10 dose IC50) [nM]	PI3Kβ @ 0.3 μM (% Inh) (PI3Kβ)	IC50 (PI3Kβ; 10 dose IC50) [nM]	BTK @ 1 μM (% Inh) (BTK; 1 μM compound, 10 μM ATP)	BTK @ 0.01 μM (% Inh) (BTK; 10 μM ATP)	Compound
68.24	17.4	57.08	24300	17.1	> 100000	52.63	927	–	–	C=CC(=O)N1CC(n2nc(-c3cc(O)cc(F)c3)c3c(N)ncnc32)Cc2cc(C)ccc21 (centres unmarked) [compound 31, 1-(3-(4-amino-3-(3-fluoro-5-hydroxyphenyl)-1H-pyrazolo[3,4-d]pyrimidin-1-yl)-6-methyl-3,4-dihydroquinolin-1(2H)-yl)prop-2-en-1-one]
63.18	134	40.21	–	5.31	–	60.98	–	93.26	–	Nc1ncnc2c1c(-c1cc(O)cc(F)c1)nn2C1Cc2ccc(F)cc2C1 (centres unmarked) [compound 57, 3-[4-amino-1-(5-fluoro-2,3-dihydro-1H-inden-2-yl)-1H-pyrazolo[3,4-d]pyrimidin-3-yl]-5-fluorophenol]
91.79	2.5	89.37	–	−3.49	–	50.12	–	–	55.15	Nc1ncnc2c1c(-c1cc(O)c(F)c(Cl)c1)cn2C1Cc2ccccc2C1 [compound 110, 5-[4-amino-7-(2,3-dihydro-1H-inden-2-yl)-7H-pyrrolo[2,3-d]pyrimidin-5-yl]-3-chloro-2-fluorophenol]
50.43	80.1	48.29	–	−9.43	–	68.12	–	–	12.09	N#Cc1cc(-c2cn(C3Cc4ccccc4C3)c3ncnc(N)c23)cc(O)c1F [compound 115, 5-[4-amino-7-(2,3-dihydro-1H-inden-2-yl)-7H-pyrrolo[2,3-d]pyrimidin-5-yl]-2-fluoro-3-hydroxybenzonitrile]
